PMC9500544, “Anti-Trichomonas gallinae activity of essential oils and main compounds from Lamiaceae and Asteraceae plants” (Frontiers in Veterinary Science, 2022)
≈ marks a conversion by molar mass, not a printed value. Read-outs that look alike come from different tables or passages of the source.

What was measured:
[1] = test system: Trichomonas gallinae trophozoites; assay: Anti-trichomonal (AT) activity in vitro, MTT reduction assay on trophozoites; type: cell-based; conditions: for IC50: Trichomonas gallinae, read-out: T. gallinae (IC50), concentration needed to produce 50% trophozoite mortality; for AT activity against T. gallinae (in words): no concentration stated
Description: The AT activity assay was performed using round bottom microwell plates in quadruplicate. Each well had 150 μl of T. gallinae trophozoites in Trypticase-Yeast Extract-Maltose medium (TYM) with 10% fetal calf serum (Sigma, Madrid, Spain) at 500.000 trophozoites/ml ([29]). EOs and pure compounds were solved in DMSO (Sigma, Madrid, Spain) (<1% final concentration). […] Trophozoite viability was analyzed using the modified MTT colorimetric assay method as previously described in literature ([29]). Briefly, after incubating the plate for 24 h at 37°C with the EOs and compounds to be tested, the plates were centrifuged at 750 x g, the medium was eliminated and 100 μl of a solution of MTT (Sigma, Madrid, Spain) (1.25 μg/ml) and PMS (Sigma, Madrid, Spain) (0.1 μg/ml) in PBS (Sigma, Madrid, Spain) was added to each well. The plate was incubated for 45 min in dark conditions to allow the reduction of MTT to formazan salts. Prior to reading, 100 μl of DMSO was added to each well to dissolve the formazan crystals. The plate was read in a spectrophotometer using a wavelength of 570 nm.
The percentage of AT activity was calculated as growth inhibition using the following formula:
% AT = 100-[(Ap-Ab)÷(Ac-Ab)]×100
Where Ap is the absorbance of the tested product, Ab the absorbance of the blank and Ac the absorbance of the control wells (culture without treatment).
Pure compounds were assayed using the same method described above, although the concentrations tested were 100, 75, 50, 25, 10, and 1 μg/ml. Metronidazole (Acros Organics, Madrid Spain) was used as a reference drug for antitrichomonal activity.
IC50 (μg/ml) reflects the dose needed to produce 50% mortality of T. gallinae trophozoites.
(§1) IC50 anti-trichomonal activity and CC50 cytotoxic activity were determined from the dose-response experiment, employing a linear regression analysis (% cell viability on log dose).

in vitro = type: cell-based
Description: (§2) African green monkey kidney cells (Vero cells) were grown in Dulbecco's modified Eagle's minimal essential medium (DMEM, Avantor, Llinars del Vallès, Barcelona) supplemented with 10% fetal calf serum (Sigma, Madrid, Spain) and 1% penicillin/streptomycin (Fisher Scientific, Madrid, Spain) at 37°C under a humidified atmosphere of 5% CO2/95% air.
(§3) Cells seeded in 96-well flat-bottom microplates with 100 μL medium per well (initial densities 10^4 cells per well) were exposed for 48 h to serial dilutions of the test compounds in DMSO (<1% final concentration). Cell viability was analyzed by the MTT colorimetric assay method, and the purple-colored formazan precipitate was dissolved with 100 μL of DMSO ([30]).
as §1

Vero cells = assay: in vitro; type: cell-based; conditions: pure compounds; for Vero cells (CC50), concentration needed to produce 50% Vero cell mortality: 48 h exposure, interval in parentheses; for Cytotoxic activity on Vero cells (in words): up to 100 μg/ml, 48 h
Description: as §2, §3, §1

[2] = cited from earlier work
[3] = pure compounds, 24 h incubation, interval in parentheses
[4] = SI = CC50 (Vero cells)/IC50 (T. gallinae)
[5] = pure compounds, 48 h exposure, interval in parentheses, read-out: Vero cells (CC50), concentration needed to produce 50% Vero cell mortality

Molecule | IC50 [1, 3] [µg/mL] | CC50 at 48 h (in vitro; African green monkey) [µg/mL] | CC50 (in vitro; [5]) [µg/mL] | further results
CC12CCC(CC1)C(C)(C)O2 [1,8 cineole] | > 100 | > 100 |  | 
CC1=CCC(O)(C(C)C)CC1 (stereo not shown) [4-terpinenol] | 41.5 (≈ 269 µM) |  | > 100 | SI, Selectivity index [1, 4]: > 2.4
CC1(C)C2CCC1(C)C(O)C2 (stereo not shown) [Borneol] | > 100 | > 100 |  | 
C=C1C2CCC(C2)C1(C)C (stereo not shown) [Camphene] | 24 (≈ 176 µM) |  | 74.8 (≈ 549 µM) | 
CC12CCC(CC1=O)C2(C)C (stereo not shown) [Camphor] | > 100 | > 100 |  | 
Cc1ccc(C(C)C)cc1O [Carvacrol] | > 100 |  | > 100 | 
C=C1CC[C@H]2O[C@]2(C)CC[C@@H]2[C@@H]1CC2(C)C [Caryophyllene oxide] |  |  |  | AT activity against T. gallinae (in words) ([1]; pure compounds): slight activity; T. gallinae (IC50), concentration needed to produce 50% trophozoite mortality [1, 3]: ≈100 μg/ml; Vero cells (CC50), concentration needed to produce 50% Vero cell mortality (Vero cells): >100 µg/mL
CC1(C)C(=O)[C@@]2(C)CCC1C2 [D-fenchone] |  |  |  | T. gallinae (IC50), concentration needed to produce 50% trophozoite mortality [1, 3]: 61.9 (54.3–70.6) μg/ml; Vero cells (CC50), concentration needed to produce 50% Vero cell mortality (Vero cells): >100 µg/mL
C=CC(C)(O)CCC=C(C)C (stereo not shown) [Linalool] | > 100 |  | > 100 | AT activity against T. gallinae (in words) ([1]; pure compounds): not an active AT compound
C=CC(C)(CCC=C(C)C)OC(C)=O (stereo not shown) [Linalyl acetate] |  |  |  | SI, Selectivity index [1]: > 3.1; IC50 ([1]; 24 h): 32.2 µg/mL; CC50 (in vitro): > 100 µg/mL
Cc1ncc([N+](=O)[O-])n1CCO [Metronidazole, reference compound] | 1 (≈ 5.84 µM) | > 100 |  | 
Cc1ccc(C(C)C)c(O)c1 [Thymol] | 38.4 (≈ 256 µM) | > 100 |  | 
Cc1ccc(C(C)C)cc1 [p-cymene] | 59.7 (≈ 445 µM) |  | > 100 | SI, Selectivity index [1, 4]: > 1.7
CC1=CCC2CC1C2(C)C (stereo not drawn) [α-pinene] | 44.2 (≈ 324 µM) | 88.9 (≈ 653 µM) |  | Cytotoxic activity on Vero cells (in words) (Vero cells): slightly toxic
CC1=CC[C@@H](C(C)(C)O)CC1 [α-terpineol] | > 100 |  | > 100 | 
C=C1CC/C=C(\C)CC[C@@H]2[C@@H]1CC2(C)C [β-caryophyllene] | 86.1 (≈ 421 µM) |  | 60.8 (≈ 298 µM) | AT activity against T. gallinae (in words) ([1]; pure compounds): slight activity; Cytotoxic activity on Vero cells (in words) (Vero cells): slightly toxic
C=C1CCC2CC1C2(C)C (stereo not drawn) [β-pinene] | 29.6 (≈ 217 µM) |  | 88.2 (≈ 647 µM) | 
CC1=CCC(C(C)C)=CC1 [γ-terpinene] | 43.8 (≈ 321 µM) |  |  | SI, Selectivity index [1, 4]: > 2.3; CC50 at 48 h (in vitro; [5]): > 100 µg/mL
α and β thujone |  |  |  | T. gallinae (IC50), concentration needed to produce 50% trophozoite mortality [1, 3]: 17.3 (11.3–26.3) μg/ml; Cytotoxic activity on Vero cells (in words) (Vero cells): did not show cytotoxic effect; Vero cells (CC50), concentration needed to produce 50% Vero cell mortality (Vero cells): >100 µg/mL; Neurotoxicity (in words) [2]: potent neurotoxic substances
